According to paper PMC8421423, “Cellular model system to dissect the isoform-selectivity of Akt inhibitors” (Nature Communications, 2021):
Where “and” joins values, the source holds several entries; their conditions need not be identical. Equal entries are not always repeated. Where two headings read alike, the source gives them in different places.

How the values were obtained:
[1] = target: T1, Akt3 (Homo sapiens, UniProt Q9Y243); experiment: STK HTRF KinEASE activity-based assay (IC50)
[2] = test system: Ba/F3^myr-Akt1 cells; experiment: CellTiter-Glo cell viability assay; conditions: for cell viability: CTG
[3] = test system: pAkt2; experiment: Western blot analysis, PANC1 cells; type: cell-based, human; conditions: PANC1, 24-h treatment
Protocol: Cells were seeded into six-well tissue culture plates (Sarstedt) (BaF3 myr-Akt1/2/3: 10^6 cells/well, PANC1: 250.000 cells/well). […] Cell lysis was initiated by addition of 100 μL RIPA buffer (Cell Signaling Technology) per well supplemented with phosphatase and protease inhibitor cocktails (Sigma) followed by incubation on ice for 20 min. Cells were then harvested by scraping (PANC1) or centrifugation (BaF3). Whole cell lysates were cleared by centrifugation at 14,000×g/4 °C for 10 min and transferred into fresh, pre-cooled microcentrifuge tubes. Protein concentrations were determined using the Pierce BCA protein assay (Thermo) as per manufacturer’s instructions. Equal amounts of protein were separated by SDS-PAGE and transferred to Immobilon-FL PVDF membranes (Merck Millipore) using Pierce™ 1-step transfer buffer (Thermo) and the Pierce™ Power Blotter (Thermo). Membranes were washed for 5 min with ddH2O, blocked with Intercept®Blocking Buffer TBS (Li-Cor) for 1 h at room temperature, and then incubated with primary antibodies diluted in Intercept®Blocking Buffer TBS overnight at 4 °C with gentle agitation. On the next day, the membranes were washed three times with TBS-T (50 mM Tris, 150 mM NaCl, 0.05 % Tween 20, pH 7.4) for 5 min before being incubated with secondary antibodies diluted in Intercept®Blocking Buffer TBS for 1 h at room temperature with gentle agitation. Finally, the membranes were washed three times for 5 min with TBS-T and then scanned using an Odyssey®CLx imaging system (Li-Cor).

[4] = target: T2, Akt1 (Homo sapiens, UniProt P31749); experiment: Cellular thermal shift assay (CETSA) in PANC1 cells; type: cell-based; set-up: purchased ProQinase #1379-0000-2; conditions: CETSA PANC1, 1 µM
T2 sequence (P31749 whole entry): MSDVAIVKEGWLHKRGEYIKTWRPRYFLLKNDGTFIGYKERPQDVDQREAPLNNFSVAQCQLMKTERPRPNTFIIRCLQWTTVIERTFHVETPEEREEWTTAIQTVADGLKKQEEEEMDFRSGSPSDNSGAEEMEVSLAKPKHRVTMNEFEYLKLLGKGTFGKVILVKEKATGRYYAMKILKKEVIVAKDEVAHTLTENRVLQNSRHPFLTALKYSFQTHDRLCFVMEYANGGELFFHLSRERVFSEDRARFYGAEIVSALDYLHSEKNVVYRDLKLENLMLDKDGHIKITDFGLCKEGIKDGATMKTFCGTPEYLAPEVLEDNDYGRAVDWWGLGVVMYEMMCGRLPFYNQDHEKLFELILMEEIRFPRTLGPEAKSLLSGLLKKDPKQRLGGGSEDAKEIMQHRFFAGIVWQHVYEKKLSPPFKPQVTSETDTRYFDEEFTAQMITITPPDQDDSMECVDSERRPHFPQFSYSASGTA
Protocol: (§1) Cells were seeded into 100 mm tissue culture plates (Sarstedt) (PANC1: 10^6 cells). After 24 h incubation, cells were treated with 1 µM of inhibitors or DMSO and were incubated for 4.5 h. Cells were washed twice with ice-cold PBS and then suspended in 1 mL PBS. Cells were collected and separated into equal volumes (100 µL). The aliquots were treated individually with different temperatures for 3 min, followed by a 3 min incubation at room temperature. Cell lysis was initiated by adding 100 µL RIPA buffer and 2 freeze-thaw cycles in liquid nitrogen. The lysates were centrifuged at 21,130×g for 20 min at room temperature. The supernatants were transferred into fresh, pre-cooled microcentrifuge tubes, and analyzed by western blot analysis as described above.

[5] = test system: parental Ba/F3 cells; experiment: CellTiter-Glo cell viability assay; type: cell-based, murine; conditions: for cell viability: CTG, parental
[6] = CellTiter-Glo cell viability assay; type: cell-based, murine; conditions: mouse, parental Ba/F3 cells, CTG, parental, single replicates
[7] = target: T3, Akt2 (Homo sapiens, UniProt P31751); experiment: Cellular thermal shift assay (CETSA) in PANC1 cells; type: cell-based; set-up: purchased Thermo Fisher Scientific #PV3184; conditions: for tAkt2 %: CETSA PANC1, 1 µM
T3 sequence (P31751 whole entry): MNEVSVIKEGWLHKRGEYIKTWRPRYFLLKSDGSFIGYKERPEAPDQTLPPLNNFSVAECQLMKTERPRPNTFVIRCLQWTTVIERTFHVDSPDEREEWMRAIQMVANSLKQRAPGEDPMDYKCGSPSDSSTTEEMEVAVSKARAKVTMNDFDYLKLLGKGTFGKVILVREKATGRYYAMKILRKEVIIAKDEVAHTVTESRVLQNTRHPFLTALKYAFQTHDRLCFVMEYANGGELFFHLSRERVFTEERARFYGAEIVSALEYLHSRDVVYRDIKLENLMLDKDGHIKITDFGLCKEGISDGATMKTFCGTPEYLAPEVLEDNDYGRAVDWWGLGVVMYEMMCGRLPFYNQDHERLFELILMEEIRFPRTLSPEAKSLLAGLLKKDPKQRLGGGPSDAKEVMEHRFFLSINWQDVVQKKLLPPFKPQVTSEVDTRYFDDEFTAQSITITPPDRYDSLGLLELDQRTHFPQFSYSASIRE
Protocol: as §1

[8] = target: T2, Akt1; experiment: STK HTRF KinEASE activity-based assay (IC50)
Protocol: The biochemical half maximal inhibitory concentrations (IC50) were determined with the STK HTRF KinEASE assay (Cisbio) according to the manufactor’s instructions. Briefly: 5 µL Kinase solution and 2.5 µL inhibitor solution (8% DMSO in HTRF buffer) were incubated for 1 h before the reaction was started by addition of 2.5 µL starting solution containing ATP and substrate peptide. […] After reaction completion (Akt1: 60 min, Akt2: 20 min, Akt3: 15 min), 10 µL of stop solution were added. […] The quotient of both intensities were recorded at eight different inhibitor concentrations and data fit to a Hill 4-parameter equation with Quattro software suite (Quattro Research GmbH, Martinsried, Germany). Each reaction was performed in duplicates and at least three independent determinations of each IC50 were made.

[9] = test system: Ba/F3^myr-Akt2 cells; experiment: CellTiter-Glo cell viability assay; conditions: for cell viability: CTG
[10] = target: T3, Akt2; experiment: STK HTRF KinEASE activity-based assay (IC50)
[11] = test system: Ba/F3^myr-Akt3 cells; experiment: CellTiter-Glo cell viability assay; conditions: for cell viability: CTG
[12] = target: T1, Akt3; experiment: Cellular thermal shift assay (CETSA) in PANC1 cells; type: cell-based; set-up: purchased ProQinase #1578-0000-1; conditions: CETSA PANC1, 1 µM
Protocol: as §1

[13] = cell viability assay Ba/F3 myr-Akt cells, log units

T1 sequence (Q9Y243 whole entry): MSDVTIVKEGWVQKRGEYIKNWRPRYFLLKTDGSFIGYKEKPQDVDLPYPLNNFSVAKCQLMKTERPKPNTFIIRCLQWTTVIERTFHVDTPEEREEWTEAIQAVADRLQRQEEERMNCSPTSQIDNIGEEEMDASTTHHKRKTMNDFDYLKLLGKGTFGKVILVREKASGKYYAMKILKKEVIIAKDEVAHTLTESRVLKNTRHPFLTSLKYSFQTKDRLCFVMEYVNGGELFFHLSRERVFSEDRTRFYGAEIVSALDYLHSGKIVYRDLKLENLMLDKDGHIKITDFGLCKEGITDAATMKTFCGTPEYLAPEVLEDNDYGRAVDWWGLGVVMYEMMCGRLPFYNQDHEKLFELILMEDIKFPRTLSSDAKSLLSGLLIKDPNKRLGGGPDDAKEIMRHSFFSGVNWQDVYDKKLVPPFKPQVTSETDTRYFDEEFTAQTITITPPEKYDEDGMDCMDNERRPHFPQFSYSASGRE

**Q.** With `C=CC(=O)Nc1ccc2[nH]c(=O)n(C3CCN(Cc4ccc(-c5ncc(Cc6cn[nH]c6)cc5-c5ccccc5)cc4)CC3)c2c1` [compound 14] as the compound, how does the IC50 ([1]; HTRF IC50 Akt3, Mean, mean of replicates) read?
**A.** 356 nM

**Q.** And the IC50 ([1]; HTRF IC50 Akt3, individual determinations, single replicates)?
**A.** 231 nM and 426 nM and 410 nM

**Q.** What about the IC50 ([1]; IC50 Akt3, HTRF, ATP at KM, 1 h preincubation) of the same compound?
**A.** 356 ± 88 nM

**Q.** And the cell viability ([2]; myr-Akt1, 0.1 nM, single replicates, 0.0001 µM)?
**A.** 103.7 % of control and 102.7 % of control

**Q.** And the cell viability ([2]; myr-Akt1, 5000 nM, single replicates, 5 µM)?
**A.** 79.7 % of control and 82.2 % of control

**Q.** What about the EC50 ([2]; Mus musculus, read-out: CTG BaF3myr-Akt1, Mean, mean of replicates) of the same compound?
**A.** 7560 nM

**Q.** What about the EC50 ([2]; Mus musculus, read-out: CTG BaF3myr-Akt1, individual determinations, single replicates) of the same compound?
**A.** 6920 nM

**Q.** What about the viability at 0.0001 µM ([2]; Mus musculus, read-out: cell viability, CTG, myr-Akt1, 0.1 nM, single replicates) of the same compound?
**A.** 100%

**Q.** And the viability at 5 µM ([2]; Mus musculus, read-out: cell viability, CTG, myr-Akt1, 5000 nM, single replicates)?
**A.** 71.9%

**Q.** What about the “Log ratio EC50 [Akt] / EC50 [Akt], Akt1 / Akt2” value [2, 13] of the same compound?
**A.** 1.15

**Q.** What about the EC50 ([2]; read-out: CTG BaF3myr-Akt1, individual determinations, single replicates) of the same compound?
**A.** 7890 nM and 7860 nM

**Q.** And the “pAkt2 level (immunoblot)” value [3]?
**A.** efficient downregulation of Akt2 phosphorylation

**Q.** And the tAkt1 % ([4]; temperature 39.9)?
**A.** 100.00%

**Q.** What about the tAkt1 % ([4]; temperature 43.5) of the same compound?
**A.** 52.07%

**Q.** And the tAkt1 % ([4]; temperature 48.4)?
**A.** 40.09%

**Q.** And the tAkt1 % ([4]; temperature 53.8)?
**A.** 35.60%

**Q.** What about the tAkt1 % ([4]; temperature 58.1) of the same compound?
**A.** 20.87%

**Q.** And the tAkt1 % ([4]; temperature 61.4)?
**A.** 22.87%

**Q.** What about the tAkt1 % ([4]; temperature 65.6) of the same compound?
**A.** 16.43%

**Q.** What about the tAkt1 % ([4]; temperature 70.9) of the same compound?
**A.** 3.87%

**Q.** And the tAkt1 % ([4]; temperature 76)?
**A.** 1.25%

**Q.** What about the tAkt1 % ([4]; temperature 79.9) of the same compound?
**A.** 0.00%

**Q.** What about the cell viability ([5]; 0.1 nM, single replicates, 0.0001 µM) of the same compound?
**A.** 100.0 % of control and 99.0 % of control

**Q.** And the cell viability ([5]; 5000 nM, single replicates, 5 µM)?
**A.** 99.0 % of control and 97.0 % of control

**Q.** What about the EC50 ([5]; Mus musculus, BaF3, parental cells, mean of replicates, read-out: CTG BaF3, Mean) of the same compound?
**A.** 8640 nM

**Q.** And the EC50 ([5]; Mus musculus, BaF3, parental cells, single replicates, read-out: CTG BaF3, individual determinations)?
**A.** 8400 nM

**Q.** What about the EC50 ([5]; parental cells, single replicates, read-out: CTG BaF3, individual determinations) of the same compound?
**A.** 7670 nM and 9860 nM

**Q.** And the viability at 3 days, 0.0001 µM ([6]; 0.1 nM, read-out: cell viability)?
**A.** 101%

**Q.** And the viability at 3 days, 5 µM ([6]; 5000 nM)?
**A.** 105%

**Q.** What about the tAkt2 % ([7]; temperature 39.9) of the same compound?
**A.** 100.00%

**Q.** What about the tAkt2 % ([7]; temperature 43.5) of the same compound?
**A.** 102.39%

**Q.** And the tAkt2 % ([7]; temperature 48.4)?
**A.** 91.99%

**Q.** And the tAkt2 % ([7]; temperature 53.8)?
**A.** 80.16%

**Q.** What about the tAkt2 % ([7]; temperature 58.1) of the same compound?
**A.** 72.88%

**Q.** What about the tAkt2 % ([7]; temperature 61.4) of the same compound?
**A.** 43.24%

**Q.** And the tAkt2 % ([7]; temperature 65.6)?
**A.** 13.13%

**Q.** And the tAkt2 % ([7]; temperature 70.9)?
**A.** 8.83%

**Q.** What about the tAkt2 % ([7]; temperature 76) of the same compound?
**A.** 2.38%

**Q.** What about the tAkt2 % ([7]; temperature 79.9) of the same compound?
**A.** 0.00%

**Q.** And the “thermal stabilization of Akt2 (CETSA, in words)” value ([7]; PANC1, 1 µM)?
**A.** significant thermal stabilization of Akt2

**Q.** What about the IC50 ([8]; HTRF IC50 Akt1, Mean, mean of replicates) of the same compound?
**A.** 527 nM

**Q.** What about the IC50 ([8]; HTRF IC50 Akt1, individual determinations, single replicates) of the same compound?
**A.** 543 nM and 509 nM and 531 nM

**Q.** What about the IC50 ([8]; IC50 Akt1, HTRF, ATP at KM, 1 h preincubation) of the same compound?
**A.** 527 ± 14 nM

**Q.** What about the “Log ratio IC50 [Akt] / IC50 [Akt], Akt1 / Akt2” value ([8]; biochemical activity based assay, log units) of the same compound?
**A.** 1.35

**Q.** And the cell viability ([9]; myr-Akt2, 0.1 nM, single replicates, 0.0001 µM)?
**A.** 101.1 % of control and 98.7 % of control

**Q.** What about the cell viability ([9]; myr-Akt2, 5000 nM, single replicates, 5 µM) of the same compound?
**A.** 0.2 % of control and 0.55 % of control and 2.5 % of control

**Q.** What about the EC50 ([9]; Mus musculus, read-out: CTG BaF3myr-Akt2, Mean, mean of replicates) of the same compound?
**A.** 529 nM

**Q.** What about the viability at 0.0001 µM ([9]; Mus musculus, read-out: cell viability, CTG, myr-Akt2, 0.1 nM, single replicates) of the same compound?
**A.** 104%

**Q.** What about the EC50 ([9]; read-out: CTG BaF3myr-Akt2, individual determinations, single replicates) of the same compound?
**A.** 932 nM and 277 nM and 378 nM

**Q.** What about the IC50 ([10]; HTRF IC50 Akt2, Mean, mean of replicates) of the same compound?
**A.** 23.9 nM

**Q.** What about the IC50 ([10]; HTRF IC50 Akt2, individual determinations, single replicates) of the same compound?
**A.** 21.3 nM and 30 nM and 19.2 nM and 20.5 nM

**Q.** What about the IC50 ([10]; IC50 Akt2, HTRF, ATP at KM, 1 h preincubation) of the same compound?
**A.** 23 ± 4 nM

**Q.** And the cell viability ([11]; myr-Akt3, 0.1 nM, single replicates, 0.0001 µM)?
**A.** 114.7 % of control and 87.0 % of control and 100.0 % of control

**Q.** And the cell viability ([11]; myr-Akt3, 5000 nM, single replicates, 5 µM)?
**A.** 35.1 % of control and 52.3 % of control and 67.7 % of control

**Q.** And the EC50 ([11]; Mus musculus, read-out: CTG BaF3myr-Akt3, Mean, mean of replicates)?
**A.** 4470 nM

**Q.** What about the EC50 ([11]; Mus musculus, read-out: CTG BaF3myr-Akt3, individual determinations, single replicates) of the same compound?
**A.** 4320 nM

**Q.** What about the “Log ratio EC50 [Akt] / EC50 [Akt], Akt3 / Akt2” value [11, 13] of the same compound?
**A.** -0.93

**Q.** What about the EC50 ([11]; read-out: CTG BaF3myr-Akt3, individual determinations, single replicates) of the same compound?
**A.** 4620 nM and 4470 nM

**Q.** And the tAkt3 % ([12]; temperature 39.9)?
**A.** 100.00%

**Q.** What about the tAkt3 % ([12]; temperature 43.5) of the same compound?
**A.** 108.88%

**Q.** What about the tAkt3 % ([12]; temperature 48.4) of the same compound?
**A.** 31.40%

**Q.** What about the tAkt3 % ([12]; temperature 53.8) of the same compound?
**A.** 28.60%

**Q.** And the tAkt3 % ([12]; temperature 58.1)?
**A.** 24.86%

**Q.** What about the tAkt3 % ([12]; temperature 61.4) of the same compound?
**A.** 22.71%

**Q.** And the tAkt3 % ([12]; temperature 65.6)?
**A.** 8.41%

**Q.** What about the tAkt3 % ([12]; temperature 70.9) of the same compound?
**A.** 4.62%

**Q.** And the tAkt3 % ([12]; temperature 76)?
**A.** 1.45%

**Q.** What about the tAkt3 % ([12]; temperature 79.9) of the same compound?
**A.** 0.00%
